Where a SMILES comes first, the peptide text is derived from it. [ ]: non-standard residue; d: D form. βAla = NCCC(=O)O
What was measured:
hUVECs = assay: Cell growth and viability within peptide-crosslinked hydrogels; format: cell-based, human; conditions: 3.5% 8-arm PEG, 40% arms crosslinking peptide, 10% cyclic RGD, 20 million cells mL^−1, up to Day 7
Description: (§1) Each of the peptides was then used to crosslink hydrogels containing hMSCs or hUVECs at 20 million cells mL^−1 and cultured for 1, 3, or 7 days. To maximize cell spreading, we made soft hydrogels that were 3.5% 8‐arm poly(ethylene glycol) (PEG) by weight. 40% of the arms were reacted with the crosslinking peptides, and 10% of the arms were functionalized with a cyclic RGD peptide for cell adhesion. […] This supports the inhibitor studies for the soluble peptides in which the MMP‐14 inhibitor completely abolished the degradation of the KLVAD‐LM peptide by hUVECs, but not the PanMMP peptide. (Figure 3C).
(§2) For all hydrogel studies, the total volume of hydrogel was 20 µL, made with 3.5% (wt/wt) PEG, 40% of the arms were functionalized with crosslinking peptides, and 10% were functionalized with cyclic‐RGD, with a final cell concentration of 20 million cells per mL. Briefly, the PEG was dissolved at 140 mg mL^−1 in PBS, the crosslinking peptides were dissolved at 22.4 mM in PBS, and the cyclic RGD was dissolved at 5.6 mM in PBS. hMSCs were harvested from T‐75 flasks. After centrifugation and pouring the supernatant liquid, the cells were resuspended at 80 000 000 or 4 000 000 cells mL^−1. The cyclic RGD and PEG PBS solutions were mixed at the ratio of 1:1. Add 10 µL of the PEG‐cyclic RGD mixer in the wells and incubate for 10 mins. The crosslinking peptides and cell solutions were mixed at a ratio of 1:1. 10 µL of the peptide‐cell mixture was pipetted into the PEG‐cyclic RGD mixer previously dropped in the wells. The solutions were pipetted until well mixed, and after 15 min in the incubator 1 mL of media was added into each well and kept in the incubator. For gels intended for imaging, 12 mm round glass coverslips were placed in each well of the 24‐well plates prior to hydrogel fabrication. For cell viability test, sylgard layers were prepared in 24 well plates to prevent unwanted cell growth on the bottom of the well wall. Sylgard kit Part A/Part B was mixed in a 10:1 ratio by volume, and the mixture was added to the 24 well plates such that the bottom of each well was completely covered by Sylgard. The plates were placed in a biosafety hood overnight with UV light on. For all studies, three technical replicates were done per condition, and the studies were repeated three times.
(§3) The hydrogels were washed with PBS three times and incubated in 4% formaldehyde in PBS for 20 min. The hydrogels were again washed with PBS three times, followed by an incubation in 0.25% Triton X‐100 in PBS solution for 20 min. The hydrogels were washed with PBS three times, followed by a 20‐min incubation of in 1% BSA in PBS. The gels were washed 3x in PBS, and 700 µL of Phalloidin/DAPI PBS staining solution (0.1% BSA, 1 µg mL^−1 DAPI, and 1 µg mL^−1 phalloidin‐iFluor 555) was added to each well, and it was incubated for 1 h in the dark at room temperature. The hydrogels were washed 3x, and 1 mL PBS was added to each well, and they were stored in a 4 °C until they were ready for imaging.
(§4) Hydrogels were imaged by confocal microscope (LSM 800, AxioObserver, EC Olan‐Neofluar 10x/0.3 objective). The 12 mm round slides with hydrogels were taken out of 24 well plates and flipped gel side down on round‐bottom slides. Confocal microscopy was carried out in the Z‐stack mode. Phalloidin was excited at 488 nm and recorded between 493 and 630 nm. DAPI was excited at 405 nm and recorded between 410 and 501 nm. Cells in each hydrogel were measured with ImageJ software according to the particle analysis results and then averaged to obtain the mean cell area in the hydrogels.
(§5) On Days 1, 3, and 7, the media from the wells was removed and 500 µL of a 10× diluted Alamar Blue stock solution in media was added to each well with hydrogels. Three wells without any cells were used for background subtraction. The gels were incubated for 4 h, at which time the absorbance was measured with a spectrophotometer at a wavelength of 579 nm (600 nm reference). […]

hMSCs = assay: as above; format: cell-based, human; conditions: 3.5% 8-arm PEG, 40% arms crosslinking peptide, 10% cyclic RGD, 20 million cells mL^−1, up to Day 7
Description: as §1, §2, §3, §4, §5

For `CC(=O)NCCC(=O)N[C@@H](CCCCN)C(=O)N[C@@H](CC(C)C)C(=O)N[C@H](C(=O)N[C@@H](C)C(=O)N[C@@H](CC(=O)O)C(=O)N1CCC[C@H]1C(=O)N[C@@H](Cc1ccc(O)cc1)C(=O)N[C@@H](C)C(=O)N[C@@H](CO)C(=O)N[C@@H](C)C(=O)N[C@@H](CCC(=O)O)C(=O)NCCC(N)=O)C(C)C` [KLVAD-PY] (Ac-[βAla]KLVADPYASAE[βAla]-NH2), the “cell spreading, growth and viability of hUVECs in crosslinked hydrogels” value (hUVECs) was “less cell spreading and viability” and the “cell spreading, growth and viability of hMSCs in crosslinked hydrogels” value (hMSCs) was “less cell spreading and viability”.
For `CC(=O)NCCC(=O)N[C@@H](CCCCN)C(=O)N[C@@H](CC(C)C)C(=O)N[C@H](C(=O)N[C@@H](C)C(=O)N[C@@H](CC(=O)O)C(=O)N[C@@H](CC(N)=O)C(=O)N[C@@H](Cc1ccc(O)cc1)C(=O)N[C@@H](C)C(=O)N[C@@H](CO)C(=O)N[C@@H](C)C(=O)N[C@@H](CCC(=O)O)C(=O)NCCC(N)=O)C(C)C` [KLVAD-NY] (Ac-[βAla]KLVADNYASAE[βAla]-NH2), the “cell spreading, growth and viability of hUVECs in crosslinked hydrogels” value (hUVECs) was “only minimal cell spreading” and the “cell spreading, growth and viability of hMSCs in crosslinked hydrogels” value (hMSCs) was “no detectable cells”.
In the case of `CSCC[C@H](NC(=O)[C@H](CC(C)C)NC(=O)[C@H](CC(=O)O)NC(=O)[C@H](C)NC(=O)[C@@H](NC(=O)[C@H](CC(C)C)NC(=O)[C@H](CCCCN)NC(=O)CCNC(C)=O)C(C)C)C(=O)N[C@@H](C)C(=O)N[C@@H](CO)C(=O)N[C@@H](C)C(=O)N[C@@H](CCC(=O)O)C(=O)NCCC(N)=O` [KLVAD-LM] (Ac-[βAla]KLVADLMASAE[βAla]-NH2), the “cell spreading, growth and viability of hUVECs in crosslinked hydrogels” value (hUVECs) is reported as “supported cell spreading and growth” and the “cell spreading, growth and viability of hMSCs in crosslinked hydrogels” value (hMSCs) is reported as “supported cell spreading and growth”.
